± gives the expanded uncertainty stated by the source.
Legend:
[1] = Liquid; for viscosity: Capillary tube (Ostwald / Ubbelohde) method; for speed of sound: Linear variable-path acoustic interferometer
[2] = xn = mol fraction of the nth substance listed; settings: 101 kPa, Liquid; for viscosity: Capillary tube (Ostwald / Ubbelohde) method; for speed of sound: Linear variable-path acoustic interferometer

## Cc1ccccc1 [toluene]
[1]; 288.15 K, 101 kPa
  viscosity: 0.6456 ± 0.0046 mPa·s
  speed of sound: 1358.5 ± 1.6 m/s
[1]; 298.15 K, 101.33 kPa
  viscosity: 0.5531 ± 0.0039 mPa·s
  speed of sound: 1310.5 ± 1.6 m/s
[1]; 308.15 K, 101.33 kPa
  viscosity: 0.502 ± 0.0037 mPa·s
  speed of sound: 1266.2 ± 1.5 m/s
[1]; 318.15 K, 101.33 kPa
  viscosity: 0.4379 ± 0.0034 mPa·s
  speed of sound: 1221 ± 1.5 m/s

## C1CCOC1 [tetrahydrofuran] + Cc1cc(C)cc(C)c1
[2]; 288.15 K, x1 = 1
  viscosity: 0.5129 ± 0.0039 mPa·s
  speed of sound: 1323.1 ± 1.6 m/s
[2]; 298.15 K, x1 = 1
  viscosity: 0.458 ± 0.0036 mPa·s
  speed of sound: 1277.6 ± 1.6 m/s
[2]; 308.15 K, x1 = 1
  viscosity: 0.4125 ± 0.0033 mPa·s
  speed of sound: 1231.5 ± 1.6 m/s
[2]; 318.15 K, x1 = 1
  viscosity: 0.3762 ± 0.0031 mPa·s
  speed of sound: 1187.2 ± 1.5 m/s

## C1CCOC1 [tetrahydrofuran]
[1]; 288.15 K, 101 kPa
  viscosity: 0.5129 ± 0.0039 mPa·s
  speed of sound: 1323.1 ± 1.6 m/s
[1]; 298.15 K, 101 kPa
  speed of sound: 1277.6 ± 1.6 m/s
[1]; 298.15 K, 101.33 kPa
  viscosity: 0.458 ± 0.0035 mPa·s
  speed of sound: 1276.6 ± 1.6 m/s
[1]; 308.15 K, 101 kPa
  speed of sound: 1231.5 ± 1.6 m/s
[1]; 308.15 K, 101.33 kPa
  viscosity: 0.4125 ± 0.0032 mPa·s
  speed of sound: 1231.7 ± 1.6 m/s
[1]; 318.15 K, 101 kPa
  speed of sound: 1187.2 ± 1.5 m/s
[1]; 318.15 K, 101.33 kPa
  viscosity: 0.3762 ± 0.003 mPa·s
  speed of sound: 1186.4 ± 1.5 m/s

## Cc1ccc(C)cc1 [1,4-dimethylbenzene]
[1]; 288.15 K, 101 kPa
  viscosity: 0.7084 ± 0.0051 mPa·s
  speed of sound: 1357.5 ± 1.7 m/s
[1]; 298.15 K, 101.33 kPa
  viscosity: 0.611 ± 0.0044 mPa·s
  speed of sound: 1316.4 ± 1.6 m/s
[1]; 308.15 K, 101.33 kPa
  viscosity: 0.5501 ± 0.004 mPa·s
  speed of sound: 1268 ± 1.6 m/s
[1]; 318.15 K, 101.33 kPa
  viscosity: 0.4912 ± 0.0037 mPa·s
  speed of sound: 1230.3 ± 1.5 m/s

## C1CCOC1 [tetrahydrofuran] + Cc1cccc(C)c1
[2]; 288.15 K, x1 = 1
  viscosity: 0.5129 ± 0.0039 mPa·s
  speed of sound: 1323.1 ± 1.6 m/s
[2]; 298.15 K, x1 = 1
  viscosity: 0.458 ± 0.0036 mPa·s
  speed of sound: 1277.6 ± 1.6 m/s
[2]; 308.15 K, x1 = 1
  viscosity: 0.4125 ± 0.0033 mPa·s
  speed of sound: 1231.5 ± 1.6 m/s
[2]; 318.15 K, x1 = 1
  viscosity: 0.3762 ± 0.0031 mPa·s
  speed of sound: 1187.2 ± 1.5 m/s

## Cc1cccc(C)c1 [1,3-dimethylbenzene]
[1]; 288.15 K, 101 kPa
  viscosity: 0.6696 ± 0.0048 mPa·s
  speed of sound: 1373.2 ± 1.7 m/s
[1]; 298.15 K, 101.33 kPa
  viscosity: 0.588 ± 0.0043 mPa·s
  speed of sound: 1326.6 ± 1.6 m/s
[1]; 308.15 K, 101.33 kPa
  viscosity: 0.5229 ± 0.0039 mPa·s
  speed of sound: 1281 ± 1.6 m/s
[1]; 318.15 K, 101.33 kPa
  viscosity: 0.4684 ± 0.0036 mPa·s
  speed of sound: 1243 ± 1.5 m/s

## C1CCOC1 [tetrahydrofuran] + Cc1ccccc1C
[2]; 288.15 K, x1 = 1
  viscosity: 0.5129 ± 0.0039 mPa·s
  speed of sound: 1323.1 ± 1.6 m/s
[2]; 298.15 K, x1 = 1
  viscosity: 0.458 ± 0.0036 mPa·s
  speed of sound: 1277.6 ± 1.6 m/s
[2]; 308.15 K, x1 = 1
  viscosity: 0.4125 ± 0.0033 mPa·s
  speed of sound: 1231.5 ± 1.6 m/s
[2]; 318.15 K, x1 = 1
  viscosity: 0.3762 ± 0.0031 mPa·s
  speed of sound: 1187.2 ± 1.5 m/s

## c1ccccc1 [benzene]
[1]; 288.15 K, 101 kPa
  viscosity: 0.693 ± 0.0049 mPa·s
  speed of sound: 1352.4 ± 1.6 m/s
[1]; 298.15 K, 101.33 kPa
  viscosity: 0.6025 ± 0.0043 mPa·s
  speed of sound: 1303.5 ± 1.6 m/s
[1]; 308.15 K, 101.33 kPa
  viscosity: 0.5395 ± 0.004 mPa·s
  speed of sound: 1257.4 ± 1.5 m/s
[1]; 318.15 K, 101.33 kPa
  viscosity: 0.467 ± 0.0036 mPa·s
  speed of sound: 1207.2 ± 1.5 m/s

## c1ccccc1 [benzene] + C1CCOC1
[2]; 288.15 K, x2 = 0
  viscosity: 0.693 ± 0.0049 mPa·s
  speed of sound: 1352.4 ± 1.6 m/s
[2]; 298.15 K, x2 = 0
  viscosity: 0.6025 ± 0.0044 mPa·s
  speed of sound: 1303.5 ± 1.6 m/s
[2]; 308.15 K, x2 = 0
  viscosity: 0.5395 ± 0.004 mPa·s
  speed of sound: 1257.4 ± 1.5 m/s
[2]; 318.15 K, x2 = 0
  viscosity: 0.467 ± 0.0037 mPa·s
  speed of sound: 1207.2 ± 1.5 m/s

## Cc1ccccc1C [1,2-dimethylbenzene]
[1]; 288.15 K, 101 kPa
  viscosity: 0.8623 ± 0.0061 mPa·s
  speed of sound: 1388.5 ± 1.7 m/s
[1]; 298.15 K, 101.33 kPa
  viscosity: 0.7576 ± 0.0053 mPa·s
  speed of sound: 1350.3 ± 1.6 m/s
[1]; 308.15 K, 101.33 kPa
  viscosity: 0.669 ± 0.0048 mPa·s
  speed of sound: 1321.4 ± 1.6 m/s
[1]; 318.15 K, 101.33 kPa
  viscosity: 0.5972 ± 0.0043 mPa·s
  speed of sound: 1285.8 ± 1.6 m/s

## Cc1ccccc1 [toluene] + C1CCOC1
[2]; 288.15 K, x2 = 0
  viscosity: 0.6456 ± 0.0047 mPa·s
  speed of sound: 1358.5 ± 1.6 m/s
[2]; 298.15 K, x2 = 0
  viscosity: 0.5531 ± 0.0041 mPa·s
  speed of sound: 1310.5 ± 1.6 m/s
[2]; 308.15 K, x2 = 0
  viscosity: 0.502 ± 0.0037 mPa·s
  speed of sound: 1266.2 ± 1.5 m/s
[2]; 318.15 K, x2 = 0
  viscosity: 0.4379 ± 0.0035 mPa·s
  speed of sound: 1221 ± 1.5 m/s

## Cc1cc(C)cc(C)c1 [1,3,5-trimethylbenzene]
[1]; 288.15 K, 101 kPa
  viscosity: 0.7592 ± 0.0056 mPa·s
  speed of sound: 1412.3 ± 1.7 m/s
[1]; 298.15 K, 101.33 kPa
  viscosity: 0.6572 ± 0.0049 mPa·s
  speed of sound: 1369.8 ± 1.7 m/s
[1]; 308.15 K, 101.33 kPa
  viscosity: 0.5792 ± 0.0044 mPa·s
  speed of sound: 1325.2 ± 1.7 m/s
[1]; 318.15 K, 101.33 kPa
  viscosity: 0.5066 ± 0.004 mPa·s
  speed of sound: 1279 ± 1.6 m/s

## C1CCOC1 [tetrahydrofuran] + Cc1ccc(C)cc1
[2]; 288.15 K, x1 = 1
  viscosity: 0.5129 ± 0.0039 mPa·s
  speed of sound: 1323.1 ± 1.6 m/s
[2]; 298.15 K, x1 = 1
  viscosity: 0.458 ± 0.0036 mPa·s
  speed of sound: 1277.6 ± 1.6 m/s
[2]; 308.15 K, x1 = 1
  viscosity: 0.4125 ± 0.0033 mPa·s
  speed of sound: 1231.5 ± 1.6 m/s
[2]; 318.15 K, x1 = 1
  viscosity: 0.3762 ± 0.0031 mPa·s
  speed of sound: 1187.2 ± 1.5 m/s

— the NIST ThermoML archive (doi:10.1016/j.fluid.2007.07.016)
